Several values for one entry are separate records, joined by “and”; a condition that tells them apart may be missing. Identical values can stand only once. Results filed as inconclusive are left out.
Test system: CD8F1 mice, subcutaneous mammary adenocarcinoma, T/C%
Assay: NCI In Vivo Anticancer Drug Screen. Data for tumor model Mammary Adenocarcinoma CD8F1 (subcutaneous) in CD8F1
Conditions: higher = larger tumour
Method in brief: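 Tumor-bearing mice, transplantable model; readout survival or tumor size; value = treated (T) / vehicle control (C).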

[1] = endpoint: median tumor weight change, dose: 1000.0 mg/kg/injection, schedule: Q01DX001 (ip), vehicle: saline with Tween-80
[2] = endpoint: median tumor weight (est.), dose: 12.5 mg/kg/injection, schedule: Q07DX005 (ip), vehicle: saline with Tween-80
[3] = endpoint: median tumor weight (est.), dose: 25.0 mg/kg/injection, schedule: Q07DX005 (ip), vehicle: saline with Tween-80
[4] = endpoint: median tumor weight (est.), dose: 50.0 mg/kg/injection, schedule: Q07DX005 (ip), vehicle: saline with Tween-80
[5] = endpoint: median tumor weight (est.), dose: 200.0 mg/kg/injection, schedule: Q07DX005 (ip), vehicle: saline with Tween-80
[6] = endpoint: median tumor weight (est.), dose: 12.5 mg/kg/injection, schedule: Q07DX005 (ip), vehicle: saline
[7] = endpoint: median tumor weight (est.), dose: 25.0 mg/kg/injection, schedule: Q07DX005 (ip), vehicle: saline
[8] = endpoint: median tumor weight (est.), dose: 50.0 mg/kg/injection, schedule: Q07DX005 (ip), vehicle: saline
[9] = endpoint: median tumor weight (est.), dose: 100.0 mg/kg/injection, schedule: Q07DX005 (ip), vehicle: saline

CC(=O)Nc1cscc1NC(C)=O
T/C (endpoint: median tumor weight change, dose: 250.0 mg/kg/injection, schedule: Q01DX001 (ip), vehicle: saline with Tween-80): 73 % of control and 85 % of control
T/C (endpoint: median tumor weight change, dose: 500.0 mg/kg/injection, schedule: Q01DX001 (ip), vehicle: saline with Tween-80): 71 % of control and 73 % of control
T/C [1]: 74 % of control and 91 % of control

CSCS(=O)C[C@H](CO)NC(=O)/C=C/c1c(C)[nH]c(=O)[nH]c1=O (stereo partly drawn)
T/C (endpoint: median tumor weight (est.), dose: 0.12 mg/kg/injection, schedule: Q07DX005 (ip), vehicle: saline): 100 % of control
T/C (endpoint: median tumor weight (est.), dose: 0.25 mg/kg/injection, schedule: Q07DX005 (ip), vehicle: saline): 76 % of control
T/C (endpoint: median tumor weight (est.), dose: 0.5 mg/kg/injection, schedule: Q07DX005 (ip), vehicle: saline): 50 % of control
T/C (endpoint: median tumor weight (est.), dose: 4.0 mg/kg/injection, schedule: Q07DX005 (ip), vehicle: saline): 10 % of control

COc1ccc(S(=O)(=O)N/N=C/C(=O)O)cc1
T/C (endpoint: median tumor weight (est.), dose: 6.25 mg/kg/injection, schedule: Q07DX005 (ip), vehicle: saline with Tween-80): 55 % of control
T/C [2]: 198 % of control
T/C [3]: 73 % of control and 82 % of control
T/C [4]: 206 % of control
T/C [5]: 44 % of control and 61 % of control

COC(=O)Nc1cccc(-c2nc3ccc(NC(=O)OC)cc3c(=O)n2-c2ccccc2)c1
T/C (endpoint: mean tumor weight, dose: 50.0 mg/kg/injection, schedule: Q07DX006 (ip), vehicle: saline): 180 % of control
T/C (endpoint: mean tumor weight, dose: 100.0 mg/kg/injection, schedule: Q07DX006 (ip), vehicle: saline): 167 % of control
T/C (endpoint: median tumor weight (est.), dose: 12.5 mg/kg/injection, schedule: Q04DX005 (ip), vehicle: saline): 101 % of control
T/C (endpoint: median tumor weight (est.), dose: 12.5 mg/kg/injection, schedule: Q07DX004 (ip), vehicle: saline): 79 % of control
T/C (endpoint: median tumor weight (est.), dose: 25.0 mg/kg/injection, schedule: Q07DX004 (ip), vehicle: saline): 103 % of control
T/C (endpoint: median tumor weight (est.), dose: 50.0 mg/kg/injection, schedule: Q04DX005 (ip), vehicle: saline): 109 % of control
T/C (endpoint: median tumor weight (est.), dose: 50.0 mg/kg/injection, schedule: Q07DX004 (ip), vehicle: saline): 88 % of control
T/C (endpoint: median tumor weight (est.), dose: 200.0 mg/kg/injection, schedule: Q04DX005 (ip), vehicle: saline): 88 % of control
T/C (endpoint: median tumor weight (est.), dose: 200.0 mg/kg/injection, schedule: Q07DX004 (ip), vehicle: saline): 113 % of control
T/C (endpoint: median tumor weight (est.), dose: 400.0 mg/kg/injection, schedule: Q07DX004 (ip), vehicle: saline): 101 % of control

CCCCCCCCCCCCCCCC(=O)Nc1ccn(C2OC(CO)C(O)C2O)c(=O)n1 (stereo not drawn)
T/C [6]: 58 % of control
T/C [7]: 63 % of control
T/C [8]: 65 % of control
T/C [9]: 31 % of control
T/C (endpoint: median tumor weight (est.), dose: 400.0 mg/kg/injection, schedule: Q07DX005 (ip), vehicle: saline): 14 % of control

CN=C(N)N/N=C(\C)c1ccc2c(c1)Cc1cc(/C(C)=N/NC(N)=NC)ccc1-2
T/C (endpoint: median tumor weight change, dose: 7.5 mg/kg/injection, schedule: Q01DX001 (ip), vehicle: saline with Tween-80): 112 % of control
T/C (endpoint: median tumor weight change, dose: 15.0 mg/kg/injection, schedule: Q01DX001 (ip), vehicle: saline with Tween-80): 102 % of control

Nc1nc(/C=C(/O)c2ccccc2)c2ncn(C3OC(CO)C(O)C3O)c2n1 (stereo not drawn)
T/C (endpoint: median tumor weight change, dose: 50.0 mg/kg/injection, schedule: Q01DX001 (ip), vehicle: distilled water + Tween-80): 91 % of control

CC(Cc1ccc(O)cc1)NCC(O)c1ccc(O)c(O)c1 (stereo not drawn)
T/C [2]: 49 % of control
T/C [3]: 90 % of control
T/C [4]: 106 % of control
T/C [5]: 110 % of control
T/C (endpoint: median tumor weight (est.), dose: 400.0 mg/kg/injection, schedule: Q07DX005 (ip), vehicle: saline with Tween-80): 84 % of control

CCOC(=O)C1C2OC(=O)C(C(=O)C2CN(CCCl)CCCl)C1C1CC=C(CC2=CCC(C3C4C(=O)OC(C(CN(CCCl)CCCl)C4=O)C3C(=O)OCC)CC2)CC1 (stereo not drawn)
T/C (endpoint: median tumor weight (est.), dose: 12.5 mg/kg/injection, schedule: Q07DX005 (ip), vehicle: Klucel (hydroxypropylcellulose) (HPC)): 49 % of control
T/C (endpoint: median tumor weight (est.), dose: 25.0 mg/kg/injection, schedule: Q07DX005 (ip), vehicle: Klucel (hydroxypropylcellulose) (HPC)): 70 % of control
T/C (endpoint: median tumor weight (est.), dose: 50.0 mg/kg/injection, schedule: Q07DX005 (ip), vehicle: Klucel (hydroxypropylcellulose) (HPC)): 31 % of control
T/C (endpoint: median tumor weight (est.), dose: 100.0 mg/kg/injection, schedule: Q07DX005 (ip), vehicle: Klucel (hydroxypropylcellulose) (HPC)): 1 % of control

c1ccc2c(NCCCCCCNc3c4ccccc4nc4ccccc34)c3ccccc3nc2c1
T/C (endpoint: median tumor weight (est.), dose: 1.25 mg/kg/injection, schedule: Q07DX005 (ip), vehicle: Klucel (hydroxypropylcellulose) (HPC)): 97 % of control
T/C (endpoint: median tumor weight (est.), dose: 2.5 mg/kg/injection, schedule: Q07DX005 (ip), vehicle: Klucel (hydroxypropylcellulose) (HPC)): 95 % of control
T/C (endpoint: median tumor weight (est.), dose: 5.0 mg/kg/injection, schedule: Q07DX005 (ip), vehicle: Klucel (hydroxypropylcellulose) (HPC)): 58 % of control
T/C (endpoint: median tumor weight (est.), dose: 20.0 mg/kg/injection, schedule: Q07DX005 (ip), vehicle: Klucel (hydroxypropylcellulose) (HPC)): 47 % of control

O=C1N[C@@H]([C@H]2CC[C@H](Cl)CN2)C(=O)N[C@H]1[C@H]1CC[C@H](Cl)CN1
T/C (endpoint: median tumor weight (est.), dose: 0.75 mg/kg/injection, schedule: Q07DX005 (ip), vehicle: saline): 40 % of control
T/C (endpoint: median tumor weight (est.), dose: 1.5 mg/kg/injection, schedule: Q07DX005 (ip), vehicle: saline): 29 % of control
T/C (endpoint: median tumor weight (est.), dose: 3.0 mg/kg/injection, schedule: Q07DX005 (ip), vehicle: saline): 11 % of control

COCCCNC1=C(C#N)C(=O)NC(c2cccc([N+](=O)[O-])c2)S1 (stereo not drawn)
T/C [1]: 95 % of control and 110 % of control
T/C (endpoint: median tumor weight change, dose: 2000.0 mg/kg/injection, schedule: Q01DX001 (ip), vehicle: saline with Tween-80): 79 % of control

COc1cc(NCc2ccc3nc(N)nc(N)c3c2C)cc(OC)c1OC (tested in a mixture with another compound)
T/C (endpoint: median tumor weight (est.), dose: 32.0 mg/kg/injection, schedule: Q04DX007 (ip), vehicle: water): 87 % of control
T/C (endpoint: median tumor weight (est.), dose: 46.0 mg/kg/injection, schedule: Q07DX005 (ip), vehicle: water): 24 % of control
T/C (endpoint: median tumor weight (est.), dose: 47.4 mg/kg/injection, schedule: Q04DX007 (ip), vehicle: water): 35 % of control
T/C (endpoint: median tumor weight (est.), dose: 70.0 mg/kg/injection, schedule: Q07DX005 (ip), vehicle: water): 27 % of control
T/C (endpoint: median tumor weight (est.), dose: 71.1 mg/kg/injection, schedule: Q04DX007 (ip), vehicle: water): 113 % of control
T/C (endpoint: median tumor weight (est.), dose: 105.0 mg/kg/injection, schedule: Q07DX005 (ip), vehicle: water): 24 % of control
T/C (endpoint: median tumor weight (est.), dose: 106.7 mg/kg/injection, schedule: Q04DX007 (ip), vehicle: water): 42 % of control
T/C (endpoint: median tumor weight (est.), dose: 157.0 mg/kg/injection, schedule: Q07DX005 (ip), vehicle: water): 13 % of control
T/C (endpoint: median tumor weight (est.), dose: 160.0 mg/kg/injection, schedule: Q04DX007 (ip), vehicle: water): 32 % of control

CC(C)NCC(O)COc1ccc(O)c(O)c1 (stereo not drawn)
T/C (endpoint: median tumor weight change, dose: 1.5 mg/kg/injection, schedule: Q01DX001 (ip), vehicle: saline): 84 % of control
T/C (endpoint: median tumor weight change, dose: 6.0 mg/kg/injection, schedule: Q01DX001 (ip), vehicle: saline): 89 % of control and 105 % of control
T/C (endpoint: median tumor weight change, dose: 12.0 mg/kg/injection, schedule: Q01DX001 (ip), vehicle: saline): 72 % of control and 97 % of control
T/C (endpoint: median tumor weight change, dose: 24.0 mg/kg/injection, schedule: Q01DX001 (ip), vehicle: saline): 102 % of control
T/C (endpoint: median tumor weight change, dose: 125.0 mg/kg/injection, schedule: Q01DX001 (ip), vehicle: saline): 77 % of control and 96 % of control

O=Cc1ccc(C=O)c(Cl)c1
T/C (endpoint: median tumor weight change, dose: 125.0 mg/kg/injection, schedule: Q01DX001 (ip), vehicle: Klucel (hydroxypropylcellulose) (HPC)): 104 % of control
T/C (endpoint: median tumor weight change, dose: 250.0 mg/kg/injection, schedule: Q01DX001 (ip), vehicle: Klucel (hydroxypropylcellulose) (HPC)): 99 % of control
T/C (endpoint: median tumor weight change, dose: 500.0 mg/kg/injection, schedule: Q01DX001 (ip), vehicle: Klucel (hydroxypropylcellulose) (HPC)): 79 % of control
T/C (endpoint: median tumor weight change, dose: 1000.0 mg/kg/injection, schedule: Q01DX001 (ip), vehicle: Klucel (hydroxypropylcellulose) (HPC)): 117 % of control
T/C (endpoint: median tumor weight change, dose: 2000.0 mg/kg/injection, schedule: Q01DX001 (ip), vehicle: Klucel (hydroxypropylcellulose) (HPC)): 67 % of control

Cc1cn(C2CC3[O][Sn]([c]4ccccc4)([c]4ccccc4)[O]CC3O2)c(=O)[nH]c1=O (stereo not drawn)
T/C [2]: 73 % of control
T/C [6]: 63 % of control
T/C [3]: 40 % of control
T/C [7]: 16 % of control
T/C [4]: 67 % of control
T/C [8]: 84 % of control
T/C (endpoint: median tumor weight (est.), dose: 100.0 mg/kg/injection, schedule: Q07DX005 (ip), vehicle: saline with Tween-80): 81 % of control
T/C [9]: 49 % of control
T/C [5]: 73 % of control
T/C (endpoint: median tumor weight (est.), dose: 200.0 mg/kg/injection, schedule: Q07DX005 (ip), vehicle: saline): 74 % of control
T/C (endpoint: median tumor weight (est.), dose: 500.0 mg/kg/injection, schedule: Q07DX005 (ip), vehicle: saline with Tween-80): 47 % of control
